# Assay results: paper PMC8359193, “Summary of reference chemicals evaluated by the fish short‐term reproduction assay, OECD TG229, using Japanese Medaka, Oryzias latipes” (Journal of Applied Toxicology, 2021)
# Counter-ions that a name gives are not always drawn.
# Test system: Japanese medaka (Oryzias latipes)
# Experiment: Fish short-term reproduction assay (FSTRA, OECD TG229), 21-day flow-through exposure
# Conditions: for Fertility rate (%) / Mortality (%) Female / Mortality (%) Male / Number of fertilized eggs / Number of total eggs / SSC Female / SSC Male / VTG (ng/mg of liver) Female / VTG (ng/mg of liver) Male: 21 days; for GSI Female / GSI Male / HSI Female / HSI Male / Length Female / Length Male / Weight Female / Weight Male: at completion of exposure
# Method: The experimental studies on the FSTRA for the 16 chemicals were conducted in two laboratories in Japan, the National Institute for Environmental Studies (NIES, Lab‐1) and the Institute of Environmental Ecology, IDEA Consultants Inc. (Lab‐2), in accordance with OECD TG229 (OECD, [2012a]) (Table 1).
# The NIES‐R strain of Japanese medaka (O. latipes), one of the orange‐red varieties, was used in all the 16 chemical studies. For the studies, healthy and mature male and female medakas at 16 ± 2 weeks old were selected from a single‐stock population, which were bred within the test facilities. The test fish were maintained in conditions similar to the assay for at least 7 days, and spawning status was checked during the acclimation period. On the day the chemical exposure commenced, to ensure balanced distribution of test fish between the treatment groups for the reproductive status of the fish, the replicate vessels (fish tanks), with each containing three male and female medaka, were distributed to each treatment and control group, for example, by a randomized block design based on the number of fertilized eggs laid in the last 5–7 days during the acclimation, in each assay.
# The water solubility of the test chemical was also taken into consideration when deciding the highest test concentration. To set the lower concentrations, a spacing factor ranging between two and five was used. All assays included a dilution water control (DWC).
# Test solutions at the selected concentrations were prepared by diluting a stock solution, which was prepared by an adequate method depending on the physicochemical properties of the test chemicals, for example, by simply mixing the test chemical in dilution water by stirring and/or sonicating for an appropriate time or by using a solid–liquid saturator. In the two laboratories, flow‐through exposure systems, in which a series of test solutions at the target concentrations can be continuously prepared and delivered to test vessels at controlled flow rates (Haselman et al., [2016]; Watanabe et al., [2017]), were used for the exposure experiments.
# In the FSTRA, three mature adult males and females in a test vessel were exposed together to the test chemicals in flow‐through condition for 3 weeks. In all the assays, each treatment group, including the DWC group, contained four replicate tanks. During the exposure period, the fish were fed a sufficient amount of live brine shrimp nauplii (newly hatched Artemia sp.) for daily spawning ad libitum. Fecal material in the tanks was appropriately removed by siphoning after feeding. Water temperature of test solutions was recorded for at least one vessel in each treatment and control group every day and for all vessels at least once a week. Furthermore, dissolved oxygen and pH of test solutions were measured for all test vessels at least once a week. Mortality and abnormal behavior and appearance in the fish exposed to test chemicals were daily observed, and any fish that died were removed from the tank as soon as possible. To assess the reproductive status, all eggs females spawned were collected every day. At the completion of the chemical exposure, surviving fish in each tank were sampled.
# The eggs females released on the bottom of the tank were collected by siphoning, and the egg clutches still on female abdomen were carefully picked from the body of the females captured using a small net. All the eggs collected were microscopically observed and separately counted for fertilized and unfertilized.
smiles,measurement,setting,value
"C[C@]12CCC(=O)C[C@@H]1CC[C@@H]1[C@@H]2CC[C@]2(C)[C@@H](O)CC[C@@H]12 [DHT, 5α‐Dihydrotestosterone]","effect on male SSC, in words",21-day exposure,statistical significance
same,LOEC on female SSC (papillary process formation on anal fin),"21-day exposure, measured conc.",1.03 µg/L
same,Fertility rate (%),measured conc. 0.063 μg/L,94%
same,Mortality (%) Female,measured conc. 0.063 μg/L,0%
same,Mortality (%) Male,measured conc. 0.063 μg/L,0%
same,Number of fertilized eggs,measured conc. 0.063 μg/L,17
same,Number of total eggs,measured conc. 0.063 μg/L,18 ± 5.6 /female/day
same,SSC Female,measured conc. 0.063 μg/L,0 ± 0
same,SSC Male,measured conc. 0.063 μg/L,72 ± 12
same,VTG (ng/mg of liver) Female,measured conc. 0.063 μg/L,617 ± 374 ng/mg of liver
same,VTG (ng/mg of liver) Male,measured conc. 0.063 μg/L,1.6 ± 0.4 ng/mg of liver
same,GSI Female,measured conc. 0.063 μg/L,10.5%
same,GSI Male,measured conc. 0.063 μg/L,1.15%
same,HSI Female,measured conc. 0.063 μg/L,3.6%
same,HSI Male,measured conc. 0.063 μg/L,1.5%
same,Length Female,measured conc. 0.063 μg/L,32.9 mm
same,Length Male,measured conc. 0.063 μg/L,33.4 mm
same,Weight Female,measured conc. 0.063 μg/L,354 mg
same,Weight Male,measured conc. 0.063 μg/L,377 mg
same,Fertility rate (%),measured conc. 2.97 μg/L,84%
same,Mortality (%) Female,measured conc. 2.97 μg/L,0%
same,Mortality (%) Male,measured conc. 2.97 μg/L,0%
same,Number of fertilized eggs,measured conc. 2.97 μg/L,12
same,Number of total eggs,measured conc. 2.97 μg/L,14 ± 3.7 /female/day
same,SSC Female,measured conc. 2.97 μg/L,22 ± 14
same,SSC Male,measured conc. 2.97 μg/L,78 ± 16
same,VTG (ng/mg of liver) Female,measured conc. 2.97 μg/L,587 ± 306 ng/mg of liver
same,VTG (ng/mg of liver) Male,measured conc. 2.97 μg/L,1.4 ± 0.7 ng/mg of liver
same,GSI Female,measured conc. 2.97 μg/L,21.1%
same,GSI Male,measured conc. 2.97 μg/L,1.21%
same,HSI Female,measured conc. 2.97 μg/L,3.8%
same,HSI Male,measured conc. 2.97 μg/L,1.7%
same,Length Female,measured conc. 2.97 μg/L,32.8 mm
same,Length Male,measured conc. 2.97 μg/L,33.6 mm
same,Weight Female,measured conc. 2.97 μg/L,425 mg
same,Weight Male,measured conc. 2.97 μg/L,411 mg
same,"effect on fecundity (number of total eggs), in words","within the test concentrations, 21-day exposure",significantly reduced
"O=C(c1ccc(OCCN2CCCCC2)cc1)c1c(-c2ccc(O)cc2)sc2cc(O)ccc12 [RAL, Raloxifene hydrochloride]",LOEC for decrease of VTG in females,"hepatic VTG, 21-day exposure, measured conc.",721 µg/L
same,Fertility rate (%),measured conc. 63.9 μg/L,87%
same,Mortality (%) Female,measured conc. 63.9 μg/L,0%
same,Mortality (%) Male,measured conc. 63.9 μg/L,0%
same,Number of fertilized eggs,measured conc. 63.9 μg/L,16
same,Number of total eggs,measured conc. 63.9 μg/L,18 ± 4.2 /female/day
same,SSC Female,measured conc. 63.9 μg/L,0 ± 0
same,VTG (ng/mg of liver) Male,measured conc. 63.9 μg/L,19.6 ± 5.7 ng/mg of liver
same,GSI Female,measured conc. 63.9 μg/L,9.6%
same,GSI Male,measured conc. 63.9 μg/L,1.03%
same,HSI Female,measured conc. 63.9 μg/L,3.2%
same,HSI Male,measured conc. 63.9 μg/L,1.5%
same,Length Female,measured conc. 63.9 μg/L,36.9 mm
same,Length Male,measured conc. 63.9 μg/L,37.5 mm
same,Weight Female,measured conc. 63.9 μg/L,555 mg
same,Weight Male,measured conc. 63.9 μg/L,511 mg
same,Fertility rate (%),measured conc. 203 μg/L,86%
same,Mortality (%) Female,measured conc. 203 μg/L,0%
same,Mortality (%) Male,measured conc. 203 μg/L,0%
same,Number of fertilized eggs,measured conc. 203 μg/L,14
same,Number of total eggs,measured conc. 203 μg/L,16 ± 2.6 /female/day
same,SSC Female,measured conc. 203 μg/L,0 ± 0
same,SSC Male,measured conc. 203 μg/L,118 ± 15
same,VTG (ng/mg of liver) Female,measured conc. 203 μg/L,652 ± 82.4 ng/mg of liver
same,VTG (ng/mg of liver) Male,measured conc. 203 μg/L,30.2 ± 11.4 ng/mg of liver
same,GSI Female,measured conc. 203 μg/L,10.2%
same,GSI Male,measured conc. 203 μg/L,0.97%
same,HSI Female,measured conc. 203 μg/L,2.9%
same,HSI Male,measured conc. 203 μg/L,1.6%
same,Length Female,measured conc. 203 μg/L,37.8 mm
same,Length Male,measured conc. 203 μg/L,38.4 mm
same,Weight Female,measured conc. 203 μg/L,600 mg
same,Weight Male,measured conc. 203 μg/L,550 mg
same,Fertility rate (%),measured conc. 721 μg/L,82%
same,Mortality (%) Female,measured conc. 721 μg/L,0%
same,Mortality (%) Male,measured conc. 721 μg/L,0%
same,Number of fertilized eggs,measured conc. 721 μg/L,14
same,Number of total eggs,measured conc. 721 μg/L,17 ± 2.6 /female/day
same,SSC Female,measured conc. 721 μg/L,0 ± 0
same,VTG (ng/mg of liver) Female,measured conc. 721 μg/L,368 ± 68.4 ng/mg of liver
same,VTG (ng/mg of liver) Male,measured conc. 721 μg/L,24.1 ± 13.7 ng/mg of liver
same,GSI Female,measured conc. 721 μg/L,10.5%
same,GSI Male,measured conc. 721 μg/L,0.96%
same,HSI Female,measured conc. 721 μg/L,3.4%
same,HSI Male,measured conc. 721 μg/L,1.5%
same,Length Female,measured conc. 721 μg/L,38.8 mm
same,Length Male,measured conc. 721 μg/L,39.0 mm
same,Weight Female,measured conc. 721 μg/L,638 mg
same,Weight Male,measured conc. 721 μg/L,612 mg
same,Fertility rate (%),measured conc. 2080 μg/L,72%
same,Mortality (%) Female,measured conc. 2080 μg/L,0%
same,Mortality (%) Male,measured conc. 2080 μg/L,0%
same,Number of fertilized eggs,measured conc. 2080 μg/L,14
same,Number of total eggs,measured conc. 2080 μg/L,19 ± 2.5 /female/day
same,SSC Female,measured conc. 2080 μg/L,0 ± 0
same,VTG (ng/mg of liver) Female,measured conc. 2080 μg/L,305 ± 99.8 ng/mg of liver
same,VTG (ng/mg of liver) Male,measured conc. 2080 μg/L,17.2 ± 3.5 ng/mg of liver
same,GSI Female,measured conc. 2080 μg/L,11.5%
same,GSI Male,measured conc. 2080 μg/L,1.12%
same,HSI Female,measured conc. 2080 μg/L,4.7%
same,HSI Male,measured conc. 2080 μg/L,1.7%
same,Length Female,measured conc. 2080 μg/L,38.8 mm
same,Length Male,measured conc. 2080 μg/L,37.1 mm
same,Weight Female,measured conc. 2080 μg/L,675 mg
same,Weight Male,measured conc. 2080 μg/L,506 mg
